These results are taken from ChEMBL document CHEMBL5346915, “A practical "preTACs-cytoblot" platform accelerates the streamlined development of PROTAC-based protein degraders” (Eur J Med Chem, 2023).

SMILES strings stand for the structures. pIC50: −log10 of the molar value. Active and inactive are the calls of the source. The rule behind the calls is not given here.

Series [1] concerns the target T1, von Hippel-Lindau disease tumor suppressor/Cyclin-dependent kinase 12 (Homo sapiens, UniProt P40337+Q9NYV4). Kind of series: PROTAC activity at VHL/CDK12 in human HeLa cells assessed as induction of CDK12 degradation measured after 24 hrs by fluorescence based cytoblot assay. It counts as cell-based.
For series [2], the target named is T1, von Hippel-Lindau disease tumor suppressor/Cyclin-dependent kinase 12. As to the kind of experiment: PROTAC activity at VHL/CDK12 in human HeLa cells assessed as induction of CDK12 degradation measured after 24 hrs by Western blotting analysis. Format: cell-based. (Immunoblotting shows a protein as a band on a membrane.)
Series [3] has as its target Protein cereblon/Cyclin-dependent kinase 12 (Homo sapiens) (UniProt Q9NYV4+Q96SW2). Kind of series: PROTAC activity at CRBN/CDK12 in human HeLa cells assessed as induction of CDK12 degradation measured after 24 hrs by fluorescence based cytoblot assay. It counts as cell-based.
Another series deals with Bel-7402. As to the kind of experiment: Antiproliferative activity against human Bel-7402 cells assessed as inhibition of cell growth measured after 96 hrs by SRB assay. Format: functional, cell-based. The settings on record: Bel-7402, 96 h. (In general: In SRB staining, fixed cells bind dye roughly in proportion to their protein.)
Series [4] deals with MDA-MB-231. Kind of series: Antiproliferative activity against human MDA-MB-231 cells assessed as inhibition of cell growth measured after 96 hrs by SRB assay. Format: functional, cell-based. The settings on record: MDA-MB-231, 96 h.
Another series relates to HeLa. As to the kind of experiment: Antiproliferative activity against human HeLa cells assessed as inhibition of cell growth measured after 96 hrs by SRB assay. It counts as functional, cell-based.
The subject of series [5] is MDA-MB-231. Kind of series: Synergistic antiproliferative activity against human MDA-MB-231 cells assessed as combination index at 500 nM incubated for 14 days in presence of olaparib by sulforhodamine B staining based Chou-Talalay method. It counts as functional. The settings on record: time 14 day.
Series [6] in a line: Cytotoxicity against human L02 cells assessed as inhibition of cell growth measured after 96 hrs by SRB assay. It counts as toxicity, cell-based.
For a further series, the system named is HCT-116. Kind of series: Antiproliferative activity against human HCT-116 cells assessed as inhibition of cell growth measured after 96 hrs by SRB assay. It counts as functional, cell-based. To be noted: HCT-116, 96 h.

T1 sequence (P40337 whole entry): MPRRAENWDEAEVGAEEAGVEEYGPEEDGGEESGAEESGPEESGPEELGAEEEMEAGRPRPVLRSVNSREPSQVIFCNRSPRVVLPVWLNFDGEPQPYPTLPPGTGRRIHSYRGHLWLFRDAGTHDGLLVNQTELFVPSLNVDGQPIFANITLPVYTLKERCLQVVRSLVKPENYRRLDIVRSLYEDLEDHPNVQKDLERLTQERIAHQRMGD
T1 sequence (Q9NYV4 whole entry): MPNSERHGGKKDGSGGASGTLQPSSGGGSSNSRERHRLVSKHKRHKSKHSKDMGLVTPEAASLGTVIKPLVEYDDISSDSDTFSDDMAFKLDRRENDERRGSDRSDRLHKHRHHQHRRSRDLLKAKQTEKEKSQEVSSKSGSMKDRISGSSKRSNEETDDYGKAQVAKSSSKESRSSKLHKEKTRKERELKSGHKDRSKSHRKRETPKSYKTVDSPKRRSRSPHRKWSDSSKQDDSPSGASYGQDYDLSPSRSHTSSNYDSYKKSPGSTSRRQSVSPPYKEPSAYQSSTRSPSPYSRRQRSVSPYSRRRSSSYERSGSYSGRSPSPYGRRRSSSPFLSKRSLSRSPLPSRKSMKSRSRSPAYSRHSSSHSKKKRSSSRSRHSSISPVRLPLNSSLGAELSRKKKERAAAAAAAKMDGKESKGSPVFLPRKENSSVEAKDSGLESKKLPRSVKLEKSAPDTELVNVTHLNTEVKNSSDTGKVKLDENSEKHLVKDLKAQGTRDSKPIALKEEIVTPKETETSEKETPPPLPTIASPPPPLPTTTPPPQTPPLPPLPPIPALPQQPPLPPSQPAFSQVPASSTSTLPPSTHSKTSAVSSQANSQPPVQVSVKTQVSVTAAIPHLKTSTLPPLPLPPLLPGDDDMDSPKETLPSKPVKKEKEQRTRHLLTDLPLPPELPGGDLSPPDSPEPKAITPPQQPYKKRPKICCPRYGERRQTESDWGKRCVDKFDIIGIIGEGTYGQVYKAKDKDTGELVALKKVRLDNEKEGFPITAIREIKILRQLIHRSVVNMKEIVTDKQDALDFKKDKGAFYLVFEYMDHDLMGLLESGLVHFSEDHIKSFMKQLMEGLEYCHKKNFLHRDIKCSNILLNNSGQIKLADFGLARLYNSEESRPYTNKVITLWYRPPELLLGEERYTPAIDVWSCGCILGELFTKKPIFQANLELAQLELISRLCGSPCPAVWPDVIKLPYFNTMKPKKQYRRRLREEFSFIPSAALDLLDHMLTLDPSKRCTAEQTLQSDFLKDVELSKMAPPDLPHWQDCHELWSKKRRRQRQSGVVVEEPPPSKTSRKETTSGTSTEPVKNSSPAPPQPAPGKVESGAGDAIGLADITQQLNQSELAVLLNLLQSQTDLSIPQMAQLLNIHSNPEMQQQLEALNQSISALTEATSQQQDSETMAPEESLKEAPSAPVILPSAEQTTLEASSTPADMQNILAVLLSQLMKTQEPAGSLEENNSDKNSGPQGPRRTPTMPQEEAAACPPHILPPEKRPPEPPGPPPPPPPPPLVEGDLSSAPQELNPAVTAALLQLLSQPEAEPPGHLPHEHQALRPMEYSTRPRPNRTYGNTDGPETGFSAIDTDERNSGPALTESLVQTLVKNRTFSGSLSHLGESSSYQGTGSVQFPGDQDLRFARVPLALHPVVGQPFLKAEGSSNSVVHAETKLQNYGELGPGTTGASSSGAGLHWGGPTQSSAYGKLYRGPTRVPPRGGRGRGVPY
Chain of Protein cereblon/Cyclin-dependent kinase 12 (Homo sapiens) (Q96SW2 whole entry, looked up): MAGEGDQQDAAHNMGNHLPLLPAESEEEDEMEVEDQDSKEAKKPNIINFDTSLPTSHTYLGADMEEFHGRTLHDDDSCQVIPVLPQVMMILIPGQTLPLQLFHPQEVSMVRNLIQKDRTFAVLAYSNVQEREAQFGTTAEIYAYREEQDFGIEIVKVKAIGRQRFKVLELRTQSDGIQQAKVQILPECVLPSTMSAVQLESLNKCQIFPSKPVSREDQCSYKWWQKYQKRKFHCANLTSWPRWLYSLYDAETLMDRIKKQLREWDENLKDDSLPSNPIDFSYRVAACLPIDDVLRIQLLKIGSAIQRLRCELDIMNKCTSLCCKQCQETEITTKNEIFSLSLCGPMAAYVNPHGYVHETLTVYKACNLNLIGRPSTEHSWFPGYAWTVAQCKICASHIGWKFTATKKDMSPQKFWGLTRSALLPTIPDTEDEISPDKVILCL
Chain of Protein cereblon/Cyclin-dependent kinase 12 (Homo sapiens) (Q9NYV4 whole entry, looked up): as the sequence (Q9NYV4 whole entry) above

The term DC50 denotes the concentration giving 50% degradation. In the case of `CC(C)S(=O)(=O)c1ccccc1Nc1nc(N[C@@H]2CCCN(CCCCCCCNC(=O)COc3cccc4c3C(=O)N(C3CCC(=O)NC3=O)C4=O)C2)ncc1Cl` (some centres not stated), the values for the DC50 in [1] and in [2] were 57 nM and 83 nM, respectively.

As for `CC(C)S(=O)(=O)c1ccccc1Nc1nc(N[C@@H]2CCCN(CCCCc3cn(CCCCCCCOc4ccc5c(c4)C(=O)N(C4CCC(=O)NC4=O)C5=O)nn3)C2)ncc1Cl` (some centres not stated), the result in series [3] was Active.

A word on the pIC50: it is the negative decadic logarithm of the IC50, by convention in mol/L. The IC50 is the concentration needed to halve the response being measured. As for `Cc1ncsc1-c1ccc([C@H](C)NC(=O)[C@@H]2C[C@@H](O)CN2C(=O)[C@@H](NC(=O)CCCCCCNC(=O)CN2CCC[C@@H](Nc3ncc(Cl)c(Nc4ccccc4S(=O)(=O)C(C)C)n3)C2)C(C)(C)C)cc1`, the pIC50 in the series on Bel-7402 is 6.31; in the series on MDA-MB-231 [4], 6.33; with HeLa it was 6.50; with HCT-116, 6.18. Further, the DC50 amounted to 74 nM in series [1] and 85 nM in [2]. Also, the CI with MDA-MB-231 [5] is 0.17. The IC50 at 96 h in series [6] is more than 1000 nM.

`CC(C)S(=O)(=O)c1ccccc1Nc1nc(N[C@@H]2CCCN(CCCCc3cn(CCCCCCCOc4cccc5c4C(=O)N(C4CCC(=O)NC4=O)C5=O)nn3)C2)ncc1Cl` (some centres not stated): in [3], the result was Active.

`CN(C)C/C=C/C(=O)Nc1ccc(C(=O)N2CCC[C@@H](Nc3ncc(Cl)c(-c4c[nH]c5ccccc45)n3)C2)cc1`: the pIC50 is 6.19 in the series with Bel-7402, 6.88 with MDA-MB-231 [4], 6.97 with HeLa and 7.05 with HCT-116. Also, the half-maximal inhibitory concentration (IC50) at 96 h in [6] came out at 119 nM.
